Reference: PubChem BioAssay (NCI)
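Step 1: Grow cells in 96-well plates. Step 2: Expose to compound for 48 hours at 5 concentrations. Step 3: Interpolate endpoints linearly; if unreached, use highest concentration. Abbreviation: GI50, concentration required for 50% inhibition of growth. TGI marks complete inhibition of growth.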

Key:
Experiment in all cases: growth of human tumour cells (NCI), 48 h
A549 NSCLC = test system: A549 NSCLC
COLO 205 colon = test system: COLO 205 colon
HCC-2998 colon = test system: HCC-2998 colon
HOP-62 NSCLC = test system: HOP-62 NSCLC
NCI-H226 lung = test system: NCI-H226 lung
NCI-H460 lung = test system: NCI-H460 lung
NCI-H522 lung = test system: NCI-H522 lung
SK-OV-3 ovarian = test system: SK-OV-3 ovarian
SW-620 colon = test system: SW-620 colon
UACC-62 melanoma = test system: UACC-62 melanoma

Structure (SMILES)	GI50 (A549 NSCLC) [µM]	TGI (A549 NSCLC) [µM]	GI50 (COLO 205 colon) [µM]	TGI (COLO 205 colon) [µM]	GI50 (HCC-2998 colon) [µM]	TGI (HCC-2998 colon) [µM]	GI50 (HOP-62 NSCLC) [µM]	TGI (HOP-62 NSCLC) [µM]	GI50 (NCI-H226 lung) [µM]	TGI (NCI-H226 lung) [µM]	GI50 (NCI-H460 lung) [µM]	TGI (NCI-H460 lung) [µM]	GI50 (NCI-H522 lung) [µM]	TGI (NCI-H522 lung) [µM]	GI50 (SK-OV-3 ovarian) [µM]	TGI (SK-OV-3 ovarian) [µM]	GI50 (SW-620 colon) [µM]	TGI (SW-620 colon) [µM]	GI50 (UACC-62 melanoma) [µM]	TGI (UACC-62 melanoma) [µM]
CCN1C(=O)CCCc2c1ccc(Nc1ncc(Cl)c(NC3[C@@H](C(N)=O)[C@@H]4C=C[C@H]3C4)n1)c2OC (stereo not given in full)	0.741	5.88	0.633	2.48	1.69	3.57	2.1	13.7	1.56	12.7	0.661	13.4	1.16	6.13	2.39	7.74	0.564	3.48	0.933	2.59
CN(C)c1nnnn1-c1c(N)n(C)c(=O)n(C)c1=O		> 100		> 100		> 100		> 100		> 100		> 100		> 100		> 100		> 100		> 100
Cc1ccc(NC(=O)C2C(=O)N(c3ccc(C)c(C)c3)C(=O)/C2=N\NC(N)=O)cc1C (stereo not given)		> 100		> 100		> 100		> 100		> 100		> 100		> 100		> 100		> 100		> 100
COc1ccc(C(c2ccc(OCCN(C)C)cc2)c2cc3ccccc3c3ccccc23)cc1 (stereo not given)	1.66	3.06	1.77	3.47	1.8	3.34	1.54	3.07	3.43	15.4	1.79	3.29	1.55	2.98	6.62	20.4	1.69	3.31	1.81	3.52
N#Cc1c(Br)n(C2OC(CO)C(O)C2O)c2ncnc(N)c12 (stereo not given)	1.13	> 27	0.675	3.07	2.15	26.3	4.09	> 100	9.16	> 100	0.574	4.56	4.62	14.8	4.29	> 45.4	0.74	32.7	2.64	6.09
Cn1c(=O)c(NC(=O)C(Cl)(Cl)Cl)nc2ccccc21		> 100		> 100		> 100		> 100		> 100		> 100		> 100		> 100		> 100		> 100
Cn1nc(-c2ccc(Cl)cc2)nc2c(=O)n(C)c(=O)nc1-2	0.768	1.73	0.491	1.93	1.18	3.83	0.886	1.75	2.38	5.83	1.21	4.94	0.864	1.67	4.8	17.7	1.4	6.46	0.745	1.68
CCCCC(C)C(OC(=O)CC(CC(=O)O)C(=O)O)C(CC(C)CC(O)CCCCC(O)CC(O)C(C)N)OC(=O)CC(CC(=O)O)C(=O)O (stereo not given)		> 100		> 100		> 100		> 100		> 100		> 100		> 100		> 100		> 100		> 100
